Measured values reported in patent publication US20240207286A1, “ASBT INHIBITORS IN THE TREATMENT OF RENAL DISEASES” (Albireo AB, priority 2022, published 2024).

Key:
Caco-2 permeability = assay type: in vitro ADME; conditions: human; for Papp A→B: A2B; for Papp B→A: B2A
From the text: Some ASBT inhibitors may show improved or optimal permeability. The permeability may be measured in Caco2 cells, and values are given as Papp (apparent permeability) values in cm/s. In some embodiments, the permeability is between about 0.01×10^−6 cm/s and about 50×10^−6 cm/s, such as between about 0.05×10^−6 cm/s and about 40×10^−6 cm/s, or such as between about 0.1×10^−6 cm/s and about 30×10^−6 cm/s. In some embodiments, the permeability is greater than at least about 0.1×10^−6 cm/s, such as greater than about 0.2×10^−6 cm/s, such as greater than about 0.4×10^−6 cm/s, such as greater than about 0.7×10^−6 cm/s, such as greater than about 1.0×10^−6 cm/s, such as greater than about 2×10^−6 cm/s, such as greater than about 3×10^−6 cm/s, such as greater than about 5×10^−6 cm/s, such as greater than about 7×10^−6 cm/s, such as greater than about 10×10^−6 cm/s, such as greater than about 15×10^−6 cm/s.
(§1) ASBT inhibitor compounds 1 to 5 were used in the experiments described herein. Values were determined using the assays described in e.g. WO 2020/161217.

BDL mice [1] = test: Comparison of ASBT inhibitors in BDL mice, 19 days treatment (Example 5); assay type: in vivo, mice (C57BL/6n); conditions: male BDL mice; for serum bile acids / urine bile acids: p.o. once daily for 19 days, Compound 1 60 mg/kg, Compound 2 3 and 10 mg/kg; for urinary NGAL: p.o. once daily, after treatment for 18 days
Procedure: Male mice (C57BL/6n) were used. After completion of quarantine and acclimatization period, animals were randomized based on body weight into experimental groups (n=12 mice per bile duct ligation group along with 5 sham operated controls). On day 0, animals underwent bile duct ligation or sham surgery. The ASBT inhibitors were administered p.o. once daily. The animals were weighed every day. At day 21, blood samples were taken 2 and 6 hours after the final dose. At day 24, animals were sacrificed and samples (urine and blood; liver, kidney, heart and spleen tissues) were collected and analysed.

BDL mice [2] = test: Therapeutic time window in BDL mice, 28 days treatment (Example 4); assay type: in vivo, mice (C57BL/6n); conditions: 60 mg/kg p.o. twice daily for 28 days
Procedure: The effect of the time period before start of treatment with Compound 1 on kidney injury in BDL mice was evaluated.
Male mice (C57BL/6n) were used. After completion of quarantine and acclimatization period, animals were randomized based on body weight into experimental groups (n=7 mice per group). On day 0, animals underwent bile duct ligation or sham surgery. From day 3, 21, 42 or 63, animals were treated for 28 days with either vehicle or with Compound 1 at a dose of 60 mg/kg, as shown in Table 4 below. Compound 1 was administered p.o. twice per day. The animals were weighed every day. Blood, urine, bile and tissue samples were collected at the end of the experiment.

Bioavailability in mice = conditions: C57BL/6, mouse, in vivo
Procedure: as §1

BDL mice [3] = test: Long-term effect on cholemic nephropathy in bile duct ligated mice, 6 weeks (Example 3); assay type: in vivo, mice (C57BL/6n)
Procedure: The long-term effect of Compound 1 on kidney injury in BDL mice was studied by histology, clinical chemistry and intravital imaging.
[…] […] On day 0, animals underwent bile duct ligation or sham surgery. Compound 1 was administered orally by gavage twice per day. Spontaneous urine samples were collected before BDL as well as on day 1 and weeks 1, 2, 3, 4, 5, and 6 after BDL by cannulation of the urinary bladder. Blood, urine, bile and tissue samples were collected at the end (week 6) of the experiment.

BDL mice [4] = test: Short-term effect of ASBT inhibition on urinary bile acid excretion in BDL mice (Example 2); assay type: in vivo, mice (C57BL/6n); conditions: female BDL mice; 15, 30, 60 or 120 mg/kg p.o. twice daily for 5 days (day 7-11); all treated groups
Procedure: The short-term effect of oral administration of Compound 1 to BDL mice on the urinary excretion of bile acids was evaluated.
Female mice (C57BL/6n) were used. After completion of quarantine and acclimatization period, animals were randomized based on body weight into experimental groups (n=4-7 mice in each). On day 0, animals underwent bile duct ligation. Compound 1 was administered orally by gavage twice per day. Spontaneous urine samples were collected before BDL and on days 7, 8, 9, 10, 11 and 12 after BDL by cannulation of the urinary bladder, and the concentration of bile acids in urine was determined.

hIBAT = target: T1, hIBAT (Homo sapiens, UniProt Q12908); test: hIBAT potency (IC50); assay type: cell-based
T1 sequence (Q12908 1-348): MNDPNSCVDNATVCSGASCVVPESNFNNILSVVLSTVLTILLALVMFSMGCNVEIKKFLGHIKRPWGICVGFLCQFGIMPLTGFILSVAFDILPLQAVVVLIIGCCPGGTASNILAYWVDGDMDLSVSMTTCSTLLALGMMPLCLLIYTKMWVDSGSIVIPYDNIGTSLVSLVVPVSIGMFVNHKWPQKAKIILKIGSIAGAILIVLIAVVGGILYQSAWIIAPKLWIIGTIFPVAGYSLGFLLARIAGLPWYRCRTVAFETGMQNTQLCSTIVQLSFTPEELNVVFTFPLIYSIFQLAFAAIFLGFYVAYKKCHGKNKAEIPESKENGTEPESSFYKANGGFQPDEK
Procedure: as §1

BDL mice [5] = test: Comparison of ASBT inhibitors in BDL mice, 5 days treatment (Example 6); assay type: in vivo, mice (C57BL/6n); conditions: male BDL mice; 10 mg/kg p.o. once daily for 5 days
Procedure: Male mice (C57BL/6n) were used. After completion of quarantine and acclimatization period, animals were randomized based on body weight into experimental groups (n=10 mice per bile duct ligation group). On day 1, animals underwent bile duct ligation. The ASBT inhibitors were administered p.o. once daily. The animals were weighed every day. At day 6, animals were moved to individual cages for cumulative overnight fecal collection (day 6 to 7). At day 8, blood samples were taken 2 and 6 hours after the final dose. Animals were then sacrificed and samples (urine and blood; liver, kidney and ileum tissues) were collected and analysed.

[6] = in vivo; cited from earlier work
[7] = male BDL mice, dosing started on Day 3
[8] = female BDL mice, 60 mg/kg p.o. twice daily for 6 weeks

Molecule `CCCCC1(C)CN(c2ccccc2)c2cc(SC)c(CSCC(=O)O)cc2S(=O)(=O)C1` (stereo not shown) [Compound 3, 2-(((3-butyl-3-methyl-7-(methylthio)-1,1-dioxido-5-phenyl-2,3,4,5-tetrahydro-1,5-benzothiazepin-8-yl)methyl)thio)acetic acid] has a Papp A→B (Caco-2 permeability) of 29.3 ×10⁻⁶ cm/s and a Papp B→A (Caco-2 permeability) of 25.3 ×10⁻⁶ cm/s.

For `CCCCC1(CC)CN(c2ccccc2)c2cc(SC)c(O/C=C(\F)C(=O)O)cc2S(=O)(=O)C1` (stereo not shown) [Compound 1, (Z)-3-((3-butyl-3-ethyl-7-(methylthio)-1,1-dioxido-5-phenyl-2,3,4,5-tetrahydro-1,5-benzothiazepin-8-yl)oxy)-2-fluoroacrylic acid], the serum bile acids (BDL mice [1]) was “lower serum bile acids”, the urine bile acids (BDL mice [1]) was “increase urine bile acids” and the “urinary NGAL” value (BDL mice [1]) was “lowered urinary NGAL”. The body weight loss (BDL mice [2]; dosing started on Day 21) was “reversed body weight loss”, the renal injury (BDL mice [2]; dosing started on Day 21) was “almost completely reversed” and the body weight loss (BDL mice [2]; dosing started on Day 42) was “reversed body weight loss”. For the same molecule, the renal injury (BDL mice [2]; dosing started on Day 42) was “partially reversed”, the “effect on renal injury and body weight loss” value (BDL mice [2]; dosing started on Day 63) was “minimal effects” and the body weight loss (BDL mice [2]; [7]) was “reversed body weight loss”. The renal injury (BDL mice [2]; [7]) was “completely prevented”, the bioavailability (Bioavailability in mice) was 44% and the “body weight loss due to BDL” value (BDL mice [3]; [8]) was “strongly ameliorated”. The “severe fibrosis and cystic dilatation of renal tubules (histology)” value (BDL mice [3]; [8]) was “antagonized by Compound 1 almost to the levels of control animals without BDL”, the “urinary BA” value (BDL mice [3]; [8]) was “massively increased” and the “urinary KIM-1” value (BDL mice [3]; [8]) was “strongly reduced”. The “urinary NGAL” value (BDL mice [3]; [8]) was “strongly reduced”, the “vascular leakage in kidneys (intravital imaging with Evans blue)” value (BDL mice [3]; [8]) was “completely reversed” and the “mortality in the 6 week-period” value (BDL mice [3]; female BDL mice, 60 mg/kg p.o. twice daily, about 50% died in BDL-vehicle group) was “no mortality”. For the same molecule, the “therapeutic efficacy in similarly designed study with male mice” value (BDL mice [3]; male mice, 6 per group) was “confirmed the therapeutic efficacy”, the “decrease of serum BA” value (BDL mice [3]; po, 60 mg/kg, 1008 h) was “about 90%” and the “concentrations of bile acids in urine, fold higher after treatment” value (BDL mice [4]) was “at least 20 fold”. For the same molecule, the IC50 (hIBAT) was 21 nM.

With `CCCCC1(CC)CN(c2ccc(F)cc2)c2cc(SC)c(OCC(=O)O)cc2S(=O)(=O)C1` (stereo not shown) [Compound 5, 2-((3-butyl-3-ethyl-5-(4-fluorophenyl)-7-(methylthio)-1,1-dioxido-2,3,4,5-tetrahydro-1,5-benzothiazepin-8-yl)oxy)acetic acid] the “urinary NGAL” value (BDL mice [5]) was “significantly reduced”, the Papp A→B (Caco-2 permeability) was 8.7 ×10⁻⁶ cm/s and the Papp B→A (Caco-2 permeability) was 12.9 ×10⁻⁶ cm/s. The IC50 (hIBAT) was 2.4 nM.

With `CCCCC1(CCCC)CN(c2ccccc2)c2cc(SC)c(OCCC(=O)O)cc2S(=O)(=O)N1` [Compound 2, 3-((3,3-dibutyl-7-(methylthio)-1,1-dioxido-5-phenyl-2,3,4,5-tetrahydro-1,2,5-benzothiadiazepin-8-yl)oxy)propanoic acid] the serum bile acids (BDL mice [1]) was “lower serum bile acids”, the urine bile acids (BDL mice [1]) was “increase urine bile acids” and the “urinary NGAL” value (BDL mice [1]) was “lowered urinary NGAL”. For the same molecule, the Papp A→B (Caco-2 permeability) was 9.2 ×10⁻⁶ cm/s and the Papp B→A (Caco-2 permeability) was 0.9 ×10⁻⁶ cm/s.

For `CCCCC1(CCCC)CS(=O)(=O)c2ccc(N(C)C)cc2[C@@H](c2ccc(OCc3ccc(C[N+]45CCN(CC4)CC5)cc3)cc2)[C@H]1O.[Cl-]` [maralixibat, 1-{[4-({4-[(4R,5R)-3,3-dibutyl-7-(dimethylamino)-4-hydroxy-1,1-dioxo-2,3,4,5-tetrahydro-1H-1λ^6-benzothiepin-5-yl]phenoxy}methyl)phenyl]methyl}-1,4-diazabicyclo[2.2.2]octan-1-ium chloride], the “systemic absorption following oral administration” value [6] is listed as “less than 10%”.
